The source of these data is patent publication US20070179060A1, “6-(Poly-substituted aryl)-4-aminopicolinates and their use as herbicides” (priority 2006, published 2007).

In general, melting point refers to the temperature of the solid-liquid transition.

Series [1] has as its system rice (Orysa sativa var. Japonica). Briefly: Herbicidal activity in transplanted paddy rice. Type of series: in vivo. The following applies: Oryza sativa, 504 h, transplant rice (crop), paddy water application, after 3 weeks; for pest or weed control at 35 g/ha: 35 g ai/ha; for pest or weed control at 17.5 g/ha: 17.5 g ai/ha. As to the method:
(§1) Weed seeds or nutlets of the desired test plant species were planted in puddled soil (mud) prepared by mixing a non-sterilized mineral soil (28 percent silt, 18 percent clay, and 54 percent sand, with a pH of about 7.3 to 7.8 and an organic matter content of about 1.0 percent) and water at a ratio of 100 kg of soil to 19 L of water. The prepared mud was dispensed in 250 mL aliquots into 480 mL non-perforated plastic pots with a surface area of 91.6 square centimeters leaving a headspace of 3 centimeters in each pot. […] Seedlings at the second or third leaf stage of growth were transplanted into 650 mL of mud contained in 960 mL non-perforated plastic pots with a surface area of 91.6 square centimeters 4 days prior to herbicide application. The paddy was created by filling the 3 centimeter headspace of the pots with water. When required to ensure good germination and healthy plants, a fungicide treatment and/or other chemical or physical treatment was applied. The plants were grown for 4-14 days in a greenhouse with an approximate 14 hour photoperiod which was maintained at about 29° C. during the day and 26° C. during the night. Nutrients were added as Osmocote (17:6:10, N:P:K+minor nutrients) at 2 g per pot. Water was added on a regular basis to maintain the paddy flood, and supplemental lighting was provided with overhead metal halide 1000-Watt lamps as necessary. The plants were employed for testing when they reached the second or third true leaf stage. A weighed amount, determined by the highest rate to be tested, of each test compound was placed in a 120 mL glass vial and was dissolved in 20 mL of acetone to obtain concentrated stock solutions. […] Application rates of ½×, ¼×, ⅛× and 1/16× of the high rate were obtained by injecting an appropriate amount of the stock solution into the aqueous layer of the paddy. Control plants were treated in the same manner with the solvent blank. The treated plants and control plants were placed in a greenhouse as described above and water was added as needed to maintain a paddy flood.

Another series deals with Echinochloa crus-galli. Briefly: Herbicidal activity in transplanted paddy rice. The format is in vivo. The settings on record: Echinochloa crus-galli, 504 h, paddy water application, after 3 weeks, read-out: % Control ECHCG; for pest or weed control at 35 g/ha: 35 g ai/ha; for pest or weed control at 17.5 g/ha: 17.5 g ai/ha. The method, then:
as §1

The subject of another series is Monochoria vaginalis. Briefly: Herbicidal activity in transplanted paddy rice. Type of series: in vivo. The settings on record: Pontederia vaginalis, 504 h, paddy water application, after 3 weeks, read-out: % Control MOOVA; for pest or weed control at 35 g/ha: 35 g ai/ha; for pest or weed control at 17.5 g/ha: 17.5 g ai/ha. The method, then: as §1
Another series relates to Cyperus difformis. Briefly: Herbicidal activity in transplanted paddy rice. Type of series: in vivo. The settings on record: Cyperus difformis, 504 h, paddy water application, after 3 weeks, read-out: % Control CYPDI; for pest or weed control at 35 g/ha: 35 g ai/ha; for pest or weed control at 17.5 g/ha: 17.5 g ai/ha. The method, then: as §1
A further series relates to Scirpus juncoides. Briefly: Herbicidal activity in transplanted paddy rice. The format is in vivo. The following applies: Schoenoplectiella juncoides, 504 h, paddy water application, after 3 weeks, read-out: % Control SCPJU; for pest or weed control at 35 g/ha: 35 g ai/ha; for pest or weed control at 17.5 g/ha: 17.5 g ai/ha. As to the method:
as §1

For series [2], the system named is redroot pigweed (Amaranthus retroflexus). Briefly: Postemergence herbicidal activity. The format is in vivo. The following applies: post-emergent, 140 g ai/ha, after 14 days; for pest or weed control at 140 g/ha: Amaranthus retroflexus, post-emergence, 336 h, read-out: % Control AMARE. The procedure, abridged:
(§2)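 Plants grown 7-21 days in greenhouse (about 15 h photoperiod, 23-29° C day, 22-28° C night) to first or second true leaf stage. Compounds in acetone/water/isopropanol/DMSO carrier with crop oil concentrate and Triton X-155 sprayed overhead at 187 L/ha; controls received solvent blank. Plants sub-irrigated afterwards; dose responses analysed by probit analysis.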

Series [3] deals with lambsquarter (Chenopodium album). Briefly: Postemergence herbicidal activity. The format is in vivo. The following applies: post-emergent, 140 g ai/ha, after 14 days; for pest or weed control at 140 g/ha: Chenopodium album, post-emergence, 336 h, read-out: % Control CHEAL. In a few lines:
as §2

Series [4] deals with velvetleaf (Abutilon theophrasti). Briefly: Postemergence herbicidal activity. The following applies: post-emergent, 140 g ai/ha, after 14 days; for pest or weed control at 140 g/ha: Abutilon theophrasti, post-emergence, 336 h, read-out: % Control ABUTH. Type of series: in vivo. The procedure, abridged: as §2
Another series concerns Lamium purpureum. Briefly: Postemergence herbicidal activity in cereal crops. The format is in vivo. The following applies: post-emergent, 17.5 g ai/ha, after 20-22 days; for pest or weed control at 17.5 g/ha: Lamium purpureum, post-emergence, 480 h, read-out: % Control LAMPU. The procedure, abridged: (§3)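 Plants are raised in a greenhouse for 7-36 days and used at the second to third true leaf stage. Compounds in a mixed organic–aqueous carrier with crop oil and surfactant are sprayed postemergence at 187 L/ha. Treated plants return to the greenhouse with sub-irrigation, alongside blank-sprayed controls.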

Series [5] concerns wheat (Triticum aestivum). Briefly: Postemergence herbicidal activity in cereal crops. The format is in vivo. The settings on record: crop, post-emergent, 17.5 g ai/ha, after 20-22 days; for plant injury at 17.5 g/ha: Triticum aestivum, post-emergence, 480 h, read-out: % Control TRZAS. The procedure, abridged: as §3
The test system of the next series is Veronica persica. Briefly: Postemergence herbicidal activity in cereal crops. Type of series: in vivo. The following applies: post-emergent, 17.5 g ai/ha, after 20-22 days; for pest or weed control at 17.5 g/ha: Veronica persica, post-emergence, 480 h, read-out: % Control VERPE. In a few lines: as §3
The next series deals with Galium aparine. Briefly: Postemergence herbicidal activity in cereal crops. Type of series: in vivo. The following applies: post-emergent, 17.5 g ai/ha, after 20-22 days; for pest or weed control at 17.5 g/ha: Galium aparine, post-emergence, 480 h, read-out: % Control GALAP. The procedure, abridged:
as §3

The next series relates to Papaver rhoeas. Briefly: Postemergence herbicidal activity in cereal crops. The format is in vivo. The following applies: post-emergent, 17.5 g ai/ha, after 20-22 days; for pest or weed control at 17.5 g/ha: Papaver rhoeas, post-emergence, 480 h, read-out: % Control PAPRH. In a few lines: as §3
Another series relates to barley (Hordeum vulare). Briefly: Postemergence herbicidal activity in cereal crops. Type of series: in vivo. The settings on record: crop, post-emergent, 17.5 g ai/ha, after 20-22 days; for pest or weed control at 17.5 g/ha: Hordeum, post-emergence, 480 h, read-out: % Control HORVS. In a few lines:
as §3

`CCN(CC)c1c(Cl)ccc(-c2cc(N)c(Cl)c(C(=O)OC)n2)c1F` [Compound 17, 4-Amino-3-chloro-6-[4-chloro-3-(diethylamino)-2-fluorophenyl]pyridine-2-carboxylic acid, methyl ester] came in with a melting point of 120 to 121 °C. This molecule also showed a pest or weed control at 35 g/ha in series [1] of 0%. In the series on Echinochloa crus-galli, the pest or weed control at 35 g/ha was 70%. The pest or weed control at 35 g/ha in the series on Monochoria vaginalis came to 100%. For the same molecule, the pest or weed control at 35 g/ha in the series with Cyperus difformis amounted to 100%. The pest or weed control at 35 g/ha in the series with Scirpus juncoides came out at 90%. In series [2], the pest or weed control at 140 g/ha was determined as 100%. For the same molecule, the pest or weed control at 140 g/ha in [3] turned out to be 100%. Also, in series [4], the pest or weed control at 140 g/ha amounted to 100%. In addition, the pest or weed control at 17.5 g/ha in the series on Lamium purpureum was 100%. Besides, the plant injury at 17.5 g/ha in [5] worked out at 0%. Further, the pest or weed control at 17.5 g/ha with Veronica persica amounted to 99%. The pest or weed control at 17.5 g/ha in the series with Galium aparine worked out at 80%. Further, the pest or weed control at 17.5 g/ha in the series on Papaver rhoeas is 100%. Besides, the pest or weed control at 17.5 g/ha in the series on barley (Hordeum vulare) stood at 0%.

Molecule `COc1c(Br)ccc(-c2cc(N)c(Cl)c(C(=O)O)n2)c1F` [Compound 120, 4-Amino-6-(4-bromo-2-fluoro-3-methoxyphenyl)-3-chloropyridine-2-carboxylic acid] showed a melting point of 176 to 177 °C. Besides, the pest or weed control at 35 g/ha in series [1] is 0%. The pest or weed control at 35 g/ha in the series on Echinochloa crus-galli was 40%. In addition, in the series with Monochoria vaginalis, the pest or weed control at 35 g/ha worked out at 100%. In addition, the pest or weed control at 35 g/ha with Cyperus difformis amounted to 100%. Besides, the pest or weed control at 35 g/ha with Scirpus juncoides amounted to 95%. In series [2], the pest or weed control at 140 g/ha turned out to be 90%. Moreover, the pest or weed control at 140 g/ha in series [3] turned out to be 95%. Moreover, the pest or weed control at 140 g/ha in [4] turned out to be 100%. Also, in the series on Lamium purpureum, the pest or weed control at 17.5 g/ha stood at 95%. Also, the plant injury at 17.5 g/ha in [5] came to 0%. Moreover, in the series with Veronica persica, the pest or weed control at 17.5 g/ha came to 50%. The pest or weed control at 17.5 g/ha in the series on Galium aparine was determined as 80%. For the same molecule, the pest or weed control at 17.5 g/ha in the series on Papaver rhoeas is 95%. The pest or weed control at 17.5 g/ha in the series on barley (Hordeum vulare) came to 0%.

With `CCCCOCCOC(=O)c1nc(-c2ccc(Cl)c(OC)c2F)cc(N)c1Cl` [Compound 92, 4-Amino-3-chloro-6-(4-chloro-2-fluoro-3-methoxyphenyl)pyridine-2-carboxylic acid, 2-butoxy-ethyl ester], the melting point lay within 72 to 74 °C. Further, the pest or weed control at 17.5 g/ha in series [1] is 0%. The pest or weed control at 17.5 g/ha with Echinochloa crus-galli was 40%. In addition, the pest or weed control at 17.5 g/ha in the series with Monochoria vaginalis amounted to 100%. Besides, in the series on Cyperus difformis, the pest or weed control at 17.5 g/ha was determined as 99%. For the same molecule, in the series on Scirpus juncoides, the pest or weed control at 17.5 g/ha turned out to be 90%. For the same molecule, in series [2], the “% Control AMARE” value was found to be 100%. The “% Control CHEAL” value in series [3] was determined as 100%. Also, the “% Control ABUTH” value in [4] was determined as 100%. Further, the “% Control LAMPU” value in the series on Lamium purpureum was 100%. Moreover, the “% Control TRZAS” value in series [5] came out at 0%. Further, the “% Control VERPE” value in the series with Veronica persica was determined as 30%. In addition, the “% Control GALAP” value in the series on Galium aparine is recorded as 99%. Moreover, in the series with Papaver rhoeas, the “% Control PAPRH” value turned out to be 95%. Moreover, in the series with barley (Hordeum vulare), the “% Control HORVS” value was 0%.

As for `CCCCOC(=O)c1nc(-c2ccc(Br)c(OC)c2F)cc(N)c1Cl` [Compound 90, 4-Amino-3-chloro-6-(4-bromo-2-fluoro-3-methoxyphenyl)pyridine-2-carboxylic acid, butyl ester], the pest or weed control at 17.5 g/ha worked out at 0% in series [1]; 30% in the series with Echinochloa crus-galli; 100% in the series with Monochoria vaginalis; 100% in the series on Cyperus difformis; 90% in the series with Scirpus juncoides; 100% with Lamium purpureum. Moreover, the pest or weed control at 17.5 g/ha in the series with Veronica persica is 25%; in the series with Galium aparine, 99%; in the series on Papaver rhoeas, 95%; in the series with barley (Hordeum vulare), 10%. The results for the pest or weed control at 140 g/ha in [2], in series [3] and in [4] were 85%, 100% and 100%, respectively. In addition, the plant injury at 17.5 g/ha in [5] was found to be 0%.

For the molecule `COC(=O)c1nc(-c2ccc(Cl)c(C(C)F)c2F)cc(N)c1Cl` (stereo not drawn) [Compound 61, 4-Amino-3-chloro-6-[4-chloro-2-fluoro-3-(1-fluoroethyl)phenyl]pyridine-2-carboxylic acid, methyl ester], the pest or weed control at 35 g/ha stood at 0% in [1]; 80% in the series with Echinochloa crus-galli; 100% with Monochoria vaginalis; 100% with Cyperus difformis; 100% in the series with Scirpus juncoides. The pest or weed control at 140 g/ha in [2], in [3] and in series [4] was 100% each time. For the same molecule, the pest or weed control at 17.5 g/ha was 99% in the series with Lamium purpureum; 75% in the series on Veronica persica; 85% in the series on Galium aparine; 90% in the series with Papaver rhoeas; 0% in the series with barley (Hordeum vulare). Moreover, the plant injury at 17.5 g/ha in series [5] was determined as 10%.

Regarding `CCCCOC(=O)c1nc(-c2ccc(Cl)c(C(C)F)c2F)cc(N)c1Cl` (stereo not drawn) [Compound 91, 4-Amino-3-chloro-6-[4-chloro-2-fluoro-3-(1-fluoroethyl)phenyl)pyridine-2-carboxylic acid, butyl ester], the pest or weed control at 35 g/ha in [1] was 0%; in the series with Echinochloa crus-galli, 99%; in the series on Monochoria vaginalis it was 100%; with Cyperus difformis, 100%; in the series on Scirpus juncoides it was 99%. In addition, the figures for the pest or weed control at 140 g/ha in series [2], in series [3] and in series [4] were 100%, 100% and 95%, respectively. Moreover, the pest or weed control at 17.5 g/ha is 100% in the series on Lamium purpureum; 45% in the series on Veronica persica; 90% in the series on Galium aparine; 60% in the series with Papaver rhoeas; 10% in the series on barley (Hordeum vulare). In addition, the plant injury at 17.5 g/ha in series [5] turned out to be 20%.
